Patent US8901168B2 (priority 2007, dated 2014)

Legend:
[1] = mice; for total vitamin E accumulation in adipose tissues: compared to unsupplemented control mice; for δ-T3 concentration in adipose tissue: compared to the rest of the groups
[2] = test system: splenocytes; parameters: species or system BALB/c mice; conditions: mouse, in vivo
[3] = test system: IFN-γ; parameters: species or system BALB/c mice; conditions: mouse, in vivo
[4] = 1 mg oral gavage daily for 56 days

SMILES	total vitamin E accumulation in adipose tissues [1, 4]	α-T (tocopherol) concentration in adipose tissue ([1]; 56 days, compared to the rest of the animal groups)	γ-T3 concentration in adipose tissue ([1]; 56 days, compared to the rest of the animals)	δ-T3 concentration in adipose tissue ([1]; 56 days)	splenocyte proliferative response to Con A [2]	splenocyte proliferative response to TT [2]	total vitamin E levels in adipose tissues, ranking of groups ([1]; 1 mg oral gavage daily for 56 days, between supplemented groups)	splenocyte proliferation, comparison between vitamin E treated groups [2]	IFN-γ production following Con A stimulation compared to α-T treated mice [3]
Cc1c(C)c2c(c(C)c1O)CC[C@@](C)(CCC[C@H](C)CCC[C@H](C)CCCC(C)C)O2 [α-T, α-tocopherol]	significant (P<0.05) levels of total vitamin E accumulation	significantly (P<0.05) high concentrations of tocopherol	did not have any detectable amounts	did not have any detectable amounts	significantly (P<0.05) greater proliferative response	significantly (P<0.05) greater proliferative response			
CC(C)=CCC/C(C)=C/CC/C(C)=C/CC[C@]1(C)CCc2cc(O)cc(C)c2O1 [δ-T3, δ-tocotrienol]	significant (P<0.05) levels of total vitamin E accumulation			highest in the δ-T3 fed animals and the levels were highly significant (P<0.01)	significantly (P<0.05) greater proliferative response	significantly (P<0.05) greater proliferative response	highest	slightly increased	significant (P<0.05) increase
